Entries after “also recorded” stand apart in the source; their conditions may differ.
Assays:
[1] = target: T1, S467A-LLO (Listeria monocytogenes serovar 1/2a, UniProt P13128, S467A); format: biochemical; details: mutant S467A compared with LLO, Fig. 2b
T1 construct: His6 (C); made in house; host or cells: Escherichia coli BL21(DE3)

[2] = target: T2, Y427A-LLO (Listeria monocytogenes serovar 1/2a, UniProt P13128, Y427A); format: biochemical; details: mutant Y427A compared with LLO, Fig. 2b
T2 construct: His6 (C); made in house; host or cells: Escherichia coli BL21(DE3)

[3] = target: T3, V428A-LLO (Listeria monocytogenes serovar 1/2a, UniProt P13128, V428A); format: biochemical; details: mutant V428A compared with LLO, Fig. 2b
T3 construct: His6 (C); made in house; host or cells: Escherichia coli BL21(DE3)

[4] = target: T4, S466A-LLO (Listeria monocytogenes serovar 1/2a, UniProt P13128, S466A); format: biochemical; details: mutant S466A compared with LLO, Fig. 2b
T4 construct: His6 (C); made in house; host or cells: Escherichia coli BL21(DE3)

[5] = target: T5, LLO (Listeria monocytogenes serovar 1/2a, UniProt P13128); details: cited from earlier work
T5 construct: His6 (C); made in house; host or cells: Escherichia coli BL21(DE3)

[6] = test system: L. monocytogenes; details: cited from earlier work

Row | SMILES | sensitivity to Myr in the inhibition of hemolytic activity [1] | sensitivity to Myr in the inhibition of hemolytic activity [2] | sensitivity to Myr in the inhibition of hemolytic activity [3] | sensitivity to Myr in the inhibition of hemolytic activity [4] | effect on hemolytic activity of LLO [5] | antimicrobial activity [6]
1 | O=c1c(O)c(-c2cc(O)c(O)c(O)c2)oc2cc(O)cc(O)c12 [Myr, myricetin] | less sensitive | less sensitive | less sensitive | less sensitive | – | –
2 | O=c1c(O)c(-c2ccc(O)c(O)c2)oc2cc(O)ccc12 [fisetin] | – | – | – | – | inhibit its hemolytic activity; also recorded: attenuating the hemolytic activity of LLO | without antimicrobial activity; also recorded: without anti-bacterial activity
